What all share (type): cell-based
The target of data set [1] is T1, ABCG2 (Homo sapiens, UniProt Q9UNQ0).
T1 sequence (Q9UNQ0 1-655): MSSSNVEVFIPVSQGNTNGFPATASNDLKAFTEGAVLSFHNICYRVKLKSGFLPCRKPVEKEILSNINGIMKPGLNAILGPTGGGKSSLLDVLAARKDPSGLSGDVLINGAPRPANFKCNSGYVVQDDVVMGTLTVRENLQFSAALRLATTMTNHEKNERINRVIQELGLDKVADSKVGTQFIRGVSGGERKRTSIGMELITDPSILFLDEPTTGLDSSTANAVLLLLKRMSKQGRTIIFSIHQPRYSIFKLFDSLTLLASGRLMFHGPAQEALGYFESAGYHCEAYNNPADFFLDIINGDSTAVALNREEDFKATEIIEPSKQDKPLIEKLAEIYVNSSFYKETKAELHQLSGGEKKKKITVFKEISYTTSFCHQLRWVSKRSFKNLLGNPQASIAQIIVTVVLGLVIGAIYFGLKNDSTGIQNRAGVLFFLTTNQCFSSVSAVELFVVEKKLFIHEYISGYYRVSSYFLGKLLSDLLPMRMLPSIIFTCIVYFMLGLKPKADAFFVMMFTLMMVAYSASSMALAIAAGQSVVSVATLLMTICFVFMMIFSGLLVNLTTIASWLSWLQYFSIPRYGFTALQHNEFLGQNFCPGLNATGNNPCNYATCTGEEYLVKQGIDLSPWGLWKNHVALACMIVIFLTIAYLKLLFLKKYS
Briefly: Mitoxantrone (MX) accumulation by flow cytometry, ABCG2-expressing PLB and A431 cells. Also on record: expressed in transfected cells; host or cells: PLB-985 and A431 cells (retroviral transduction). The note with it: control and ABCG2 expressing PLB and A431 cells, 1 μM MX, 60 minutes. (A flow cytometer gives signals particle by particle.)

Data set [2] concerns the target T1, ABCG2. Briefly: PG accumulation examined by confocal microscopy in PLB and PLB-ABCG2 cells. Also on record: expressed in transfected cells; host or cells: PLB-985 cells (retroviral transduction). The note with it: PLB-ABCG2 cells, 0.5 μM PGD, 30 minutes, no inhibitor.
Experimental: For confocal microscopy the cells (5×10^5) were washed twice with 1 mL DPBS, then pre-incubated with 1 μg/mL Alexa Fluor-647 conjugated wheat-germ agglutinin (WGA-A647) in uptake buffer for 5 minutes at room temperature. Thereafter the cells were incubated with 0.5 μM PGD with or without transporter inhibitors for 30 minutes at 37° C. PGD uptake was stopped by washing the cells with 1 mL DPBS. The images were acquired by a Zeiss LSCM 710 microscope using a 63×NA=1.4 Plan Apo objective. Images were captured and analyzed by Zen2 (Blue edition) Software.
In order to examine the wider applicability of the PGD-based assay for functional ABCG2 transporter studies, we examined PG accumulation in control PLB cells and in PLB cells expressing ABCG2, by using fluorescence (confocal) microscopy.
In these experiments, in order to label the plasma membrane compartment of the cells, we also included the staining of live PLB cells with a fluorescent anti-WGA antibody.
Data set [3] addresses T1, ABCG2. Briefly: PhenGreen (PG) accumulation by flow cytometry, ABCG2-expressing PLB and A431 cells. Also on record: expressed in transfected cells; host or cells: PLB-985 and A431 cells (retroviral transduction). The protocol: In order to follow the time-dependent accumulation of PG, 5×10^5 cells were washed twice with 1 mL DPBS (1 g/L D-glucose with phosphate buffered saline), then pre-incubated in the uptake buffer (1 mM EDTA in DPBS) for 10 minutes at 37° C. Thereafter the cells were incubated in the uptake buffer with various concentrations of PhenGreen SK diacetate (PGD), with or without transporter inhibitor, at 37° C., for 1-60 minutes. Dye uptake was stopped by the addition of 150 μl ice-cold EDTA-DPBS, the cells were kept on ice until the measurements (see FIG. 12.). For assessing the PGD concentration dependence of PG accumulation, 5×10^5 PLB-985 or A431 cells, expressing the ABCB1 or ABCG2 transporters, or HL-60 and HEK-293 cells, expressing ABCC1, were washed twice with 1 mL DPBS, then pre-incubated in EDTA-DPBS medium for 10 minutes at room temperature. The cells were incubated in EDTA-DPBS with 0.1-5 μM of PGD at 37° C. for 30 minutes. Dye uptake was stopped by the addition of 150 μl ice-cold EDTA-DPBS. The cells were kept on ice until the measurement.
(§1) The cells (5×10^5) were incubated with 0.5 μM PGD or 1 μM (Mx) with or without inhibitors, for 30 (PGD) or 60 (Mx) minutes at 37° C. The reaction was stopped by the addition of ice-cold EDTA-DPBS and fluorescence was measured as described above.
All experiments were performed at least three times. Data analysis was performed using FACSDiva v6.1.3 Software (BD Bioscience, San Jose, CA), flow cytometry figures were prepared with the Attune Acoustic Focusing Cytometer v1.25 Software (Applied Biosystems, Life Technologies, Carlsbad, CA, USA). Results were expressed as median±standard deviation. The MDR activity factor % (MAF %—see refs [Homolya L et al. Br J Cancer. 1996; Holló Z et al. Anticancer Res. 1998; 18: 2981-7., Sarkadi et al. U.S. Pat. No. 5,872,014 1999]) was calculated as follows: MAF %=(((MFIinh−MFI0)/MFIinh)×100), wherein MFIinh and MFI0 are the median fluorescence intensity (MFI) with (inh) or without (0) inhibitor. The EC50 analysis was carried out using the Origin 8.6. software.

The target of data set [4] is T2, ABCG2 (Homo sapiens, UniProt Q9UNQ0, K86M).
T2 construct: expressed in transfected cells; host or cells: PLB-985 and A431 cells (retroviral transduction)
T2 sequence (Q9UNQ0 1-655 K86M): T1 sequence (Q9UNQ0 1-655) with K86M
The data set is described as above. The note with it: PLB cells expressing ABCG2-K86M. The protocol: (§2) In order to follow the time-dependent accumulation of PG, 5×10^5 cells were washed twice with 1 mL DPBS (1 g/L D-glucose with phosphate buffered saline), then pre-incubated in the uptake buffer (1 mM EDTA in DPBS) for 10 minutes at 37° C. Thereafter the cells were incubated in the uptake buffer with various concentrations of PhenGreen SK diacetate (PGD), with or without transporter inhibitor, at 37° C., for 1-60 minutes. Dye uptake was stopped by the addition of 150 μl ice-cold EDTA-DPBS, the cells were kept on ice until the measurements (see FIG. 12.). […]
as §1
(§3) All experiments were performed at least three times. […] Results were expressed as median±standard deviation. The MDR activity factor % (MAF %—see refs [Homolya L et al. Br J Cancer. 1996; Holló Z et al. Anticancer Res. 1998; 18: 2981-7., Sarkadi et al. U.S. Pat. No. 5,872,014 1999]) was calculated as follows: MAF %=(((MFIinh−MFI0)/MFIinh)×100), wherein MFIinh and MFI0 are the median fluorescence intensity (MFI) with (inh) or without (0) inhibitor. […]

Data set [5] deals with human peripheral blood mononuclear cells (PBMCs). Briefly: Functional test of ABCG2, ABCB1 or ABCC1 transporter function in PBMCs. As for the experimental part: Freshly drawn venous blood samples were collected from healthy donors into EDTA coated tubes. Peripheral blood mononuclear cells (PBMCs) were isolated by Ficoll-histopaque density gradient centrifugation. The PBMCs were washed twice with 1 mL EDTA-DPBS uptake buffer (1 mM EDTA and 1 g/L D-glucose with phosphate buffered saline). The various cell populations can be stained with cluster of differentiation markers (CD markers), conjugated by e.g. APC, APC-Cy7, Pacific blue, or other fluorescent marker. After CD labeling the cells were incubated in the uptake buffer with 1 μM PhenGreen SK diacetate (PGD), or 0.25 μM Calcein-AM (CaAM) or 1 μM mitoxantrone (Mx), with or without selective transporter inhibitors, for 30 minutes (PGD and CaAM) or 60 minutes (Mx) at 37° C. […] The reaction was stopped by the addition of ice-cold EDTA-DPBS and fluorescence was measured as described above.
[…] cell populations, i.e. granulocytes, monocytes and lymphocytes have been visualized by flow cytometry as described in the Materials and Methods chapter (Panel A). […] MDR activity factors were calculated as described above based on the measurements of the accumulation of the three fluorescent dyes, with or without inhibitors, in the respective leukocyte populations (Panel C).

The next data set concerns the target T3, ABCB1 (Homo sapiens, UniProt P08183).
T3 construct: expressed in transfected cells; host or cells: PLB-985 and A431 cells (retroviral transduction)
Briefly: PhenGreen (PG) accumulation by flow cytometry, ABCB1-expressing PLB and A431 cells. As for the experimental part:
as §2, §1, §3

For a further data set, the target named is T4, ABCC1 (Homo sapiens, UniProt P33527).
T4 construct: expressed in transfected cells; host or cells: HL-60 and HEK-293 cells (retroviral transduction)
Briefly: PhenGreen (PG) accumulation by flow cytometry, ABCC1-expressing HL-60 and HEK cells. As for the experimental part:
as §2, §1, §3

For the next data set, the system named is PLB, HEK or A431 cells. Briefly: Cell viability assay after PGD loading. Particulars: PGD loading 30 min at 37° C.; PLB cells counted for 9 days, HEK or A431 cells cultured 72 hours. As for the experimental part: Control and ABCG2 expressing PLB-985 cells (1×10^6) were pre-incubated in the uptake buffer for 10 minutes at 37° C., then incubated with or without 0.5 μM PGD for 30 minutes at 37° C. The PGD-treated cells were sorted based on PG fluorescence by FACS Aria III Cell sorter (BD Bioscience, San Jose, CA, with 488 nm blue laser excitation and 530/30 nm emission). The sorted cells were suspended in 3 mL RMPI media in 6 well plates and live cell number was measured each day, dead cells were excluded by TO-PRO™-3 Iodide.
In order to estimate the EC50 values, HEK or A431 cells were treated with […] for 30 min at 37° C. in the EDTA-DPBS buffer, then washed and cultured in 2 mL DMEM media in 12 well plates for 72 hours. […]
In the first set of these experiments (FIG. 7, Panel A) we used control and ABCG2 expressing PLB cells, incubated in the PGD loading media with or without 0.5 μM PGD for 30 minutes at 37° C. The PGD-treated cells were then sorted based on PG fluorescence by flow cytometry, and the cells were resuspended in RPMI media. […]
In the second set of experiments HEK or A431 cells were treated with the indicated concentrations of PGD for 30 min at 37° C. in the loading media, then washed and cultured in normal cell culturing media for 72 hours. Live cell number was determined by flow cytometry, dead cells excluded by TO-PRO-3 staining (see Methods). […]

Changes are numbered by the printed parent chain.

T4 sequence (P33527 whole entry): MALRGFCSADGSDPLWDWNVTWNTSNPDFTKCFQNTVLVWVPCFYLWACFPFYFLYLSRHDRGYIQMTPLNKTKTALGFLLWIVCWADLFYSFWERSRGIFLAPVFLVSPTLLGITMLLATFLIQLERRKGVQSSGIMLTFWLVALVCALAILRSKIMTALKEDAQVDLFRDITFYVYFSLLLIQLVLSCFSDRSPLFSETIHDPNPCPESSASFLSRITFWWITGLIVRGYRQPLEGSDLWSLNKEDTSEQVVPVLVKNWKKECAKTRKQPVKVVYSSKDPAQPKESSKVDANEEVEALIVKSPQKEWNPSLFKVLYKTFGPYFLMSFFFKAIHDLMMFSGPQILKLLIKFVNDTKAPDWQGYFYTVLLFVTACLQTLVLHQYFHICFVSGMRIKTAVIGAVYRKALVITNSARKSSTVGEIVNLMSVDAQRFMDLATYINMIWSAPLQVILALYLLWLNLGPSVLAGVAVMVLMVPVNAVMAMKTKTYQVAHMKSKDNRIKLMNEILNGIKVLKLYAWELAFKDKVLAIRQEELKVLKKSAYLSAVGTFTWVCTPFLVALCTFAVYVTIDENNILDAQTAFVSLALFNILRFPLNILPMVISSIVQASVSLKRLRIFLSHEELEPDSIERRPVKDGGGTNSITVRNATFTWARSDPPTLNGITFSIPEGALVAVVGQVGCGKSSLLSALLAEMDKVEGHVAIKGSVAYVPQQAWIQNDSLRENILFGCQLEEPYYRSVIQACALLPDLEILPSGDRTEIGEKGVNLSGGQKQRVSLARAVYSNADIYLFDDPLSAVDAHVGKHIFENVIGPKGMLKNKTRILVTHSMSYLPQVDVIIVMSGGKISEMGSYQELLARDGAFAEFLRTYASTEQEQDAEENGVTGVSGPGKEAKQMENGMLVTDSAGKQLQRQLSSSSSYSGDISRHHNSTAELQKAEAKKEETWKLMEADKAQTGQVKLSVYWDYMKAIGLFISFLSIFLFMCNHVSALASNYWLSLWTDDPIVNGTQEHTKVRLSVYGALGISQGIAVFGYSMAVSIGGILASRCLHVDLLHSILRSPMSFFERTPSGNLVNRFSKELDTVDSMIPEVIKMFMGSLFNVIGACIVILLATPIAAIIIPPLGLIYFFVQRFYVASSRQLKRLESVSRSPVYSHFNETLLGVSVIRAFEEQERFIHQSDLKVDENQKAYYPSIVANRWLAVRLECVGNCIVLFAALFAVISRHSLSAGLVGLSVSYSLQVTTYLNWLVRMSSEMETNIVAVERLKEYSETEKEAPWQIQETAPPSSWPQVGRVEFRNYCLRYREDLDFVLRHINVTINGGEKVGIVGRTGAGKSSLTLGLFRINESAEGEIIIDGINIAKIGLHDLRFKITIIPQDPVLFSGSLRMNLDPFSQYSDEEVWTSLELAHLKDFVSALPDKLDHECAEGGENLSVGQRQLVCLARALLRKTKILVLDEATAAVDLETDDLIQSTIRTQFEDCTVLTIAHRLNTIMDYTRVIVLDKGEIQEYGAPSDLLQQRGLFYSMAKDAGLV
T3 sequence (P08183 whole entry): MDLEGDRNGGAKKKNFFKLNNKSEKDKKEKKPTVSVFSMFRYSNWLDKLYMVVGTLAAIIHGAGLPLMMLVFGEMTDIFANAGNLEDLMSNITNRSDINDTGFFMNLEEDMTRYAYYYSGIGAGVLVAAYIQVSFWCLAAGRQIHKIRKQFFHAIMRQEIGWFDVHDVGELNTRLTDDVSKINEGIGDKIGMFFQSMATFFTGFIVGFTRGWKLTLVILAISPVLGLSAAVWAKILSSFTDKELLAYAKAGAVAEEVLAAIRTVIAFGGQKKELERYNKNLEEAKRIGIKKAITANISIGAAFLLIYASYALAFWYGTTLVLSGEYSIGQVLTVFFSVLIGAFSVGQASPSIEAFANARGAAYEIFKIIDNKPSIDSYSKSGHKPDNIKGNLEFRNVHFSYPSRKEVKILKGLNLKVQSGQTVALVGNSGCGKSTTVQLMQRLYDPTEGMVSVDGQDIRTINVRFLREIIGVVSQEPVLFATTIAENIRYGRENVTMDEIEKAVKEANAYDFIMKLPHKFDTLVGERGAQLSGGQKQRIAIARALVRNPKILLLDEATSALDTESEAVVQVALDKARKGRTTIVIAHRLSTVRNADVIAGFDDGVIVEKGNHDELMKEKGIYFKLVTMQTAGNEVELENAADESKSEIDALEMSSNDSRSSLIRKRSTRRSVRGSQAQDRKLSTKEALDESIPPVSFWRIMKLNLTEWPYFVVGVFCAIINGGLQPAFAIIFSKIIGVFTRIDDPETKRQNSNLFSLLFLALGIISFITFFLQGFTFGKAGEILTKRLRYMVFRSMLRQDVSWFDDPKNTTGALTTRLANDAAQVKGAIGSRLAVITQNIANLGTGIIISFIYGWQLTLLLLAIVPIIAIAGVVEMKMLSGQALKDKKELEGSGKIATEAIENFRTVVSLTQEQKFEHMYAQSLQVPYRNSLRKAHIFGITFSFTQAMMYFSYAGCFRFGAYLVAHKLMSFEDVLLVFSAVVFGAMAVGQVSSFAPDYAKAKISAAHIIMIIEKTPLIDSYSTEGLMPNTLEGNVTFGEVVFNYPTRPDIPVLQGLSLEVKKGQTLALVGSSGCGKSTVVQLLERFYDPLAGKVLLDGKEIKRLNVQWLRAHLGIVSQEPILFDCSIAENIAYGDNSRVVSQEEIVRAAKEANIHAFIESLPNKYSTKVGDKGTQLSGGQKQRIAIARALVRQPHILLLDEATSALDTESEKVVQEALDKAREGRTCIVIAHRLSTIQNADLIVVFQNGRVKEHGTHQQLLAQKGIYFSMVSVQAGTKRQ

With `O=C1c2c(O)ccc(O)c2C(=O)c2c(NCCNCCO)ccc(NCCNCCO)c21` [MX, mitoxantrone], the “MDR activity factor (MAF) based on MX extrusion” value at ABCG2 [1] is recorded as “essentially similar results as obtained by using PG accumulation”.

PhenGreen SK [PG]: at ABCG2 [2], the “cytoplasmic PG accumulation (confocal microscopy)” value is given as “practically did not accumulate PG”. The “MDR activity factor (MAF) from PG accumulation in absence or presence of Ko143” value at ABCG2 [3] (PLB cells expressing wild-type ABCG2) is given as “high activity level”. On ABCG2 [4], the “effect of non-functional catalytic mutant ABCG2-K86M on PG accumulation” value is “no effect on PG accumulation”.

Consider `CC(=O)Oc1cc2c(cc1Cl)C1(OC(=O)c3cc(C(=O)Nc4cc5cccnc5c5ncccc45)ccc31)c1cc(Cl)c(OC(C)=O)cc1O2` [PGD, PhenGreen SK diacetate], for which the “transporter substrate activity in mononuclear cell populations” value in data set [5] (granulocytes, monocytes and lymphocytes, 1 μM PGD, 30 minutes at 37° C.) is “active substrate in each cell type”. Besides, the “MAF factor compared with other dyes” value in data set [5] (monocytes, ABCG2, ABCB1 and ABCC1 with selective inhibitors) is “higher MAF factor than Calcein AM and mitoxantrone for each of the transporters”. For the same molecule, the “applicability for calculating the MDR activity factor, compared with mitoxantrone” value on ABCB1 (ABCB1 expressing PLB cells) and at ABCC1 (ABCC1 expressing HL-60 cells) was “similarly or better applicable than MX” each time. Moreover, the “PG accumulation in ABCB1 expressing cells versus control parental cells” value at ABCB1 (PLB and A431 cells, 0.1-5 μM PGD, EDTA-DPBS, 30 minutes at 37° C.) is on record as “significantly lower levels of PG than their control parental cells”. For the same molecule, on ABCG2 [3] (PLB cells, 0.5 to 2.5 μM PGD in the media, 37° C.), the “time in which the increase in cellular PG fluorescence saturated” value was “less than 30 minutes”. Further, the “effect of ABCG2 protein on accumulated PG fluorescence” value on ABCG2 [3] (PLB vs PLB-ABCG2 cells, low (below 1 μM) PGD, 30 minutes at 37° C., flow cytometry) is recorded as “major difference in the amount of the accumulated PG fluorescence”. Besides, the “PG accumulation in ABCC1 expressing cells versus control parental cells” value at ABCC1 (HL-60 and HEK cells, 0.1-5 μM PGD, EDTA-DPBS, 30 minutes at 37° C.) is reported as “significantly lower levels of PG than their control parental cells”. Further, the “effect of PG accumulation on cell growth” value in the data set on PLB, HEK or A431 cells is reported as “no measurable effect on the growth of the cells”.

These data come from patent publication US11982675B2, “Method of assessing ABC transporter activity using fluorescent dye accumulation assay” (CELLPHARMA KFT., priority 2017, dated 2024).
